Data set [1] can be described thus: Cupric ion chelating (CIC) assay. The format is biochemical. The note with it: increasing ERGO concentrations. The source says:
(§1) We also assessed ERGO's transition metal scavenging using cupric ion chelating (CIC) and ferrous ion chelating (FIC) assays. In these experiments, pyrocatechol violet or ferrozine forms a complex with free Cu(II) or Fe(II), respectively, resulting in a chromophore with a strong absorbance signal. The pyrocatechol violet-COI) complex has an absorbance lambda max (λmax) at 630 nm, and ferrozine-Fe(II) has a λmax at 562 nm. In the presence of ERGO, fewer free metals are available to form these complexes, resulting in less absorbance.
The copper chelating activity of ERGO was determined using a CIC assay (Zen-Bio Inc., Durham, N.C.). Assays contained triplicated samples, standards, background, and max absorbance wells. All the assay absorbance values were subtracted from the average background absorbance, comprising of water and assay buffer (1:1). Maximal absorbance was measured by averaging the absorbance values of 3 wells containing only CuSO4 and assay buffer. […] The plate was then read at 632 nm using a Biotek Synergy 4 plate reader. Absorbances were averaged, and the background absorbance was subtracted from the sample and maximum averages (Abstest and Absmax). Cupric ion chelating percentage was then calculated using the following equation: Cupric ion chelating (%)=100×(Absmax−Abstest)/Absmax.

Data set [2] can be described thus: Ferrous ion chelating (FIC) assay. It is filed as biochemical. The note with it: increasing ERGO concentrations.
Description: as §1
The iron chelating activity of ERGO was determined using a FIC assay, which was obtained from Zen-Bio Inc. (Durham, N.C.). The assay was done on a 96-well plate with triplicated samples, standards, background, and max absorbance wells. All of the assay absorbance values were subtracted from the average background absorbance, comprising of water and assay buffer (1:1). Maximal absorbance was measured by averaging the absorbance values of 3 wells containing only FeSO4 and assay buffer. […] The assaying plate was incubated at room temperature for 10 minutes then the plate was read at 562 nm using a Biotek Synergy 4 plate reader. Absorbances were averaged, and the background absorbance was subtracted from the sample and maximum averages (Abstest and Absmax). […]

The next data set concerns 5XFAD mice. As to the kind of experiment: Rotarod after ERGO treatment. The note with it: ERGO-treated 5XFAD versus non-treated 5XFAD and WT, three days of testing. It is filed as in vivo, mouse. The protocol:
To address our primary question whether longitudinal consumption of ERGO as a potent antioxidant benefit the brain, three cohorts of animals (n=12 non-treated WT control, n=12 non-treated 5XFAD, and n=18 ERGO-treated 5XFAD) were used (FIG. 3.2A). Starting at the age of 8 weeks, the animals were treated with high doses of ERGO solution (25-50 mg/Kg) formulated in double distilled (dd) water via oral gavage three times a week over the course of eight weeks. To reduce bias in the behavioral experiments with regard to the potential stress during gavage treatment, non-treated animals underwent the identical gavage process with the vehicle, water, only. The efficacy of the therapy was evaluated by behavioral testing, followed by three different non-invasive PET imaging sessions to assess biomarkers related to AD pathology. In addition to assessing Abeta levels and glucose metabolism using the [^11C]PIB and [^18F]FDG probes, respectively; we also tested for the first time whether oxidative stress could be used as an indicator of response to therapy using the [^11C]ERGO PET radioligand. Finally, animals were euthanized, and the brains were collected for immunohistochemical analysis. […]
Neuromuscular ability and motor learning were assessed using a standard rotarod (Ugo Basile). […] Time to fall was recorded automatically when mice fell from the rod onto a base plate.
(In general: In the rotarod test animals must keep their balance on a rotating rod.)

Another data set has as its system IBA1-positive microglia. Nature of the data set: IBA1 immunohistochemistry of brain sections after ERGO treatment. The format is in vivo, mouse. The note with it: ERGO-treated versus non-treated 5XFAD mice. The protocol: In this study, after the PET imaging, animals (non-treated 5XFAD (n=3) and ERGO-treated 5XFAD mice (n=5)) were perfused, and the brain sections were stained with antibodies against GFAP and IBA1 for neuroinflammatory markers astrocytes and microglia, respectively.
Quantitative analysis of the PET imaging and IHC data was performed using imageJ software. The data was imported to GraphPad Prism version 9 for Mac (GraphPad Software, San Diego, Calif., USA) for statistical analysis. Differences between groups were tested using unpaired t-test.

Take `C[N+](C)(C)[C@@H](Cc1c[nH]c(=S)[nH]1)C(=O)[O-]` [ERGO, L-ergothioneine]: the “absorbance signal of pyrocatechol violet-Cu(II) complex” value in data set [1] is “decreased as the concentrations of ERGO increased in a dose-dependent fashion”. Moreover, the “absorbance signal of ferrozine-Fe(II) complex” value in data set [2] is listed as “decreased as the concentrations of ERGO increased in a dose-dependent fashion”. Besides, the “rotarod latency to fall, group differences” value with 5XFAD mice is “no differences among the groups”. Moreover, the “reduction of IBA1-positive microglia” value with IBA1-positive microglia is recorded as about 80%.

These data come from patent publication US20230097883A1, “ERGOTHIONEINE PET COMPOUNDS AND METHODS OF USE THEREOF” (VANDERBILT UNIVERSITY, priority 2021, published 2023).
